Experiment [1] deals with T1, PADI4 (Homo sapiens, UniProt Q9UM07).
T1 construct: His6; made in house
The experiment is described as follows: COLDER inhibition assay, BAEE substrate, with or without 1 h preincubation. Particulars: for IC50: COLDER; for remaining activity at 0.003 µM: peptide 0.003 µM; for remaining activity at 0.01 µM: peptide 0.01 µM; for remaining activity at 0.03 µM: peptide 0.03 µM; for remaining activity at 0.1 µM: peptide 0.1 µM; for remaining activity at 0.3 µM: peptide 0.3 µM; for remaining activity at 1 µM: peptide 1 µM; for remaining activity at 3 µM: peptide 3 µM; for remaining activity at 30 µM: peptide 30 µM; for remaining activity at 50 µM: peptide 50 µM. It is filed as biochemical. The method, then: PADI4 citrullination activity was analysed using the COLDER assay in 96-well plates. Peptide dilutions were prepared from a 500 µM stock, to give a 10 times concentrated dilution series (500 µM, 300 µM, 100 µM, 30 µM, 10 µM, 3 µM, 1 µM, 0.3 µM, 0.1 µM and 0.03 µM) in COLDER buffer (50 mM HEPES, 150 mM NaCl and 2 mM DTT, pH 7.5) containing 1% DMSO. In triplicate, each was diluted 10-fold further when mixed with 50 nM His-PADI4, 0.6 mg/mL BSA and 10 mM CaCl2, in COLDER buffer. With or without one hour of incubation, 10 mM N^α-Benzoyl-L-arginine ethyl ester hydrochloride (BAEE, Merck) was added to initiate the reaction (50 µL final volume). After 30 min at rt, EDTA (50 mM final concentration) was used to quench the reaction and 200 µL of COLDER solution containing 20 mM Diacetyl monoxime/2,3-butanedione monoxime (Merck), 0.5 mM Thiosemicarbazide (Acros Organics), 2.25 M H3PO4, 4.5 M H2SO4 and 1.5 mM NH4Fe(SO4)2.12H2O was added to each well. Samples were incubated for 20 min at 95 °C before measuring absorbance at 540 nm on a CLARIOstar Plus (BMG LABTECH). Data analysis was performed with GraphPad Prism. Data are presented as the average ± standard error of the mean from at least two independent replicates.

The target in experiment [2] is T1, PADI4. The experiment is described as follows: Incubation time-dependent COLDER assay IC50(t), Krippendorff fit. The note with it: for IC50: replicates, read-out: apparent IC50. It is filed as biochemical. The method, then: To determine KI and kinact of covalent peptide inhibitors, COLDER assays were used[52]. Peptide dilutions were prepared using 5-fold dilutions from 500 µM and 300 µM to 0.8 µM and 2.4 µM, respectively, at 1% DMSO in COLDER buffer (50 mM HEPES, 150 mM NaCl and 2 mM DTT, pH 7.5). The 9 peptide dilutions were added to a 96-well plate, alongside a 1% DMSO control. An equal volume of 10 mM BAEE was added to each well and the solution was homogenised by pipette mixing. This was mixed with 50 nM His-PADI4, 0.6 mg/mL BSA and 10 mM CaCl2, in COLDER buffer, to bring the final volume to 300 µL in each well. Alternatively, His-PAD1 (100 nM) /His-PADI2 (100 nM) /His-PADI3 (250 nM) were used. For assays with PADI1 and PADI3, 10 mM N^α-benzoyl-L-arginine methyl […] (BAME) was used as the substrate instead of BAEE[48],[58],[59]. At 15-minute intervals, for 5 timepoints, 50 µL of solution was taken from each well and quenched with 10 µL EDTA (300 mM). 200 µL of COLDER solution containing 20 mM diacetyl monoxime/2,3-butanedione monoxime (Merck), 0.5 mM thiosemicarbazide (Acros Organics), 2.25 M H3PO4, 4.5 M H2SO4 and 1.5 mM NH4Fe(SO4)2.12H2O was added to each well. Samples were incubated for 20 min at 95 °C before measuring absorbance at 540 nm on a CLARIOstar Plus (BMG LABTECH). IC50 values for each time point were determined using non-linear regression with GraphPad Prism. Incubation time–dependent potency IC50(t) against incubation time was fitted to the Krippendorff equation (below) to determine KI and kinact using a Python script[53],[59]. […] IC50t=KI1+S/KM⋅2−2e^−ηIC50⋅kinact⋅t/ηIC50⋅kinact⋅t−1 WhereηIC50=IC50t/KI1+S/KM+IC50t

Experiment [3] has as its target T1, PADI4. The experiment is described as follows: Surface plasmon resonance (SPR), single cycle kinetics. The class given is binding. Particulars: for Kd: reversible binding, 1:1 binding model. The protocol:
S8. Surface plasmon resonance (SPR)
Using a Biacore S200 (GE Healthcare), biotinylated His-PADI4 (80 nM) was immobilised on a CAP chip (GE Healthcare) to a response unit of approx. 3000. At 25 °C, single cycle kinetics mode was used with 5 samples of a 3-fold dilution series of peptides PADI4_3_H4(2), cP4_2, […]
mM HEPES, 150 mM NaCl, 10 mM CaCl2, 0.05% Tween-20, 0.1% DMSO (pH 7.5). After each cycle, regeneration of the chip was carried out as per the manufacturer’s protocol. Data were analysed with the Biacore S200 Evaluation Software, each in triplicate. Warhead-containing peptides were analysed using the two-state reaction model, with the rate constant for the reverse second step (k-2) set to zero. The equilibrium constant of the reversible binding step, Ki, was calculated as the ratio of k-1/k+1 and the rate constant of the irreversible chemical step, kinact, as k+2. The Arg4, Cit4 and Me4 peptides were fitted using a 1:1 binding model. […]

Where [4] appears, read: no preincubation of peptide and PADI4, 10 mM CaCl2, read-out: IC50 Values 0 h preincubation.
Where [5] appears, read: T=0, values starred, read-out: PADI4 activity normalised to 0.1% DMSO.
The mark [6] stands for this setting: T=1, read-out: PADI4 activity normalised to 0.1% DMSO.
[7] abbreviates: T=0, read-out: PADI4 activity normalised to 0.1% DMSO.
Where [8] appears, read: Krippendorff fit of IC50 vs time.
The mark [9] stands for this setting: no preincubation, read-out: PADI4 activity, normalised (Figure 4b dose-response).

Several values for one entry are separate records, joined by “and”; a condition that tells them apart may be missing. Identical values can stand only once. Like-named read-outs stand apart in the source and are kept apart here. Where a SMILES comes first, the peptide text is derived from it. Bridges are numbered along the chain shown (N, C = ends). [ ]: non-standard residue; d: D form. Orn(fluoroacetimidoyl) = N=C(CF)NCCC[C@H](N)C(=O)O; Orn(acetimidoyl) = CC(=N)NCCC[C@H](N)C(=O)O; Cit = NC(=O)NCCC[C@H](N)C(=O)O

T1 sequence (Q9UM07 whole entry): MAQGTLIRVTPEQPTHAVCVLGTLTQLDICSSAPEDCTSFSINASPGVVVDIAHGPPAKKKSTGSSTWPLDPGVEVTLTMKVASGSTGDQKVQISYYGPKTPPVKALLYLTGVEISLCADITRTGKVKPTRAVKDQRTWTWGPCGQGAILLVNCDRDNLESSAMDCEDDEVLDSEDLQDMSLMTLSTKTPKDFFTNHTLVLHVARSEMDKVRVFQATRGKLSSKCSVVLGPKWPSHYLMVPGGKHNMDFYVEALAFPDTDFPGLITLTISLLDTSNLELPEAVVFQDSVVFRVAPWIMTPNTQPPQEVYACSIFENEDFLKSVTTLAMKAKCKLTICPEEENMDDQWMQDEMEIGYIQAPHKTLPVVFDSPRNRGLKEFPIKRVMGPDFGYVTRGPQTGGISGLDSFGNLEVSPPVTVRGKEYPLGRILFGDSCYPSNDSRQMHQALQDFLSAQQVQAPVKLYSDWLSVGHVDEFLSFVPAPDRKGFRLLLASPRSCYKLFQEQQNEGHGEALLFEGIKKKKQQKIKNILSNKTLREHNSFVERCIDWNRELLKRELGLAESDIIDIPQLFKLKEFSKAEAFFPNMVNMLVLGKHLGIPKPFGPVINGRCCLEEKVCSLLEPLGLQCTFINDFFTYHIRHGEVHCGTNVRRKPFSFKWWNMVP

With `CC[C@H](C)[C@H](NC(=O)[C@H](Cc1c[nH]c2ccccc12)NC(=O)[C@H](CCC(=O)O)NC(=O)[C@@H]1CSCC(=O)N[C@H](Cc2ccc(O)cc2)C(=O)N[C@@H](C(C)C)C(=O)N[C@@H](Cc2ccc(O)cc2)C(=O)N[C@@H](CCCNC(=N)CF)C(=O)N[C@@H](CC(=O)O)C(=O)N1)C(=O)N[C@@H](CC(N)=O)C(=O)N[C@@H](CCCNC(=N)N)C(=O)N[C@@H](C)C(=O)NCC(N)=O` [cP4_165, yVY(2)DCEWINRAG] ({CH2CO}-[dY]VY[Orn(fluoroacetimidoyl)]DCEWINRAG-NH2; thioether N-6), the IC50 is 0.17 ± 0.01 µM on PADI4 [1] (1 h preincubation of peptide and PADI4, 10 mM CaCl2, read-out: IC50 Values 1 h preincubation); 11.8 ± 4.9 µM at PADI4 [1] (setting [4]); 51.7 µM and 33.8 µM and 43.9 µM on PADI4 [2] (15 mins); 22.5 µM and 16.4 µM and 14.6 µM at PADI4 [2] (30 mins); 13.7 µM (2×) and 11.2 µM at PADI4 [2] (45 mins); 11.9 µM and 10 µM and 8.76 µM at PADI4 [2] (60 mins). In addition, on PADI4 [2] (75 mins), the IC50 was 9.43 µM and 9.54 µM and 8.45 µM. For the same compound, the remaining activity at 0.003 µM at PADI4 [1] (setting [5]) stood at 97.2%; on PADI4 [1] (setting [6]) it was 95%. Moreover, the values for the remaining activity at 0.01 µM at PADI4 [1] (setting [5]) and on PADI4 [1] (setting [6]) were 94.1% and 89%, respectively. For the same compound, the remaining activity at 0.03 µM on PADI4 [1] (setting [7]) is 97.8%. The remaining activity at 0.1 µM at PADI4 [1] (setting [7]) amounted to 99.6%. For the same compound, the remaining activity at 0.3 µM was found to be 99.2% on PADI4 [1] (setting [7]) and 24.1% at PADI4 [1] (setting [6]). For the same compound, on PADI4 [1] (setting [7]), the remaining activity at 1 µM is 97%. Besides, the second-order inactivation constant (kinact/KI) on PADI4 [2] is 283 M⁻¹ s⁻¹; at PADI4 [3], 1780 M⁻¹ s⁻¹. Also, the Ki on PADI4 [2] (setting [8]) is 8.9 ± 1.1 µM; at PADI4 [3] (two-state reaction model, k-1/k+1) it was 0.62 ± 0.06 µM. For the same compound, the kinact at PADI4 [2] (setting [8]) was 0.00267 s⁻¹; on PADI4 [3] (each replicate, read-out: k2 / kinact), 0.0013 s⁻¹; at PADI4 [3] (two-state reaction model, k+2, read-out: SPR kinact (converted)) it was 0.0011 s⁻¹.
Consider `N=C(N)NCCC[C@@H]1NC(=O)[C@H](CCCNC(N)=O)NC(=O)[C@H](CC(=O)O)NC(=O)[C@H](Cc2ccc(O)cc2)NC(=O)[C@H](CCCCN)NC(=O)[C@H](CO)NC(=O)[C@@H](Cc2ccc(O)cc2)NC(=O)CSC[C@@H](C(=O)NCC(N)=O)NC(=O)[C@H](CC(=O)O)NC(=O)[C@H](CCCNC(=N)N)NC(=O)[C@@H]2CCCN2C(=O)[C@H](CO)NC1=O` [Cit4] ({CH2CO}-[dY]SKYD[Cit]RSPRDCG-NH2; thioether N-12), for which the IC50 on PADI4 [1] (setting [4]) is > 100 µM. Also, on PADI4 [1] (setting [9]), the remaining activity at 0.003 µM stood at 96.7%, the remaining activity at 0.03 µM came to 95.6%, the remaining activity at 0.1 µM is 99.7% and the remaining activity at 0.3 µM is 103%. At PADI4 [1] (setting [9]), the remaining activity at 3 µM is 101%, the remaining activity at 30 µM turned out to be 103% and the remaining activity at 50 µM came out at 107%. The remaining activity at 10 µM on PADI4 [1] (peptide 10 µM, no preincubation, read-out: PADI4 activity, normalised (Figure 4b dose-response)) amounted to 108%. The equilibrium dissociation constant (Kd) at PADI4 [3] was > 10 µM.
Turning to `N=C(N)NCCC[C@@H]1NC(=O)[C@H](CC(=O)O)NC(=O)[C@H](Cc2ccc(O)cc2)NC(=O)[C@H](CCCCN)NC(=O)[C@H](CO)NC(=O)[C@@H](Cc2ccc(O)cc2)NC(=O)CSC[C@@H](C(=O)NCC(N)=O)NC(=O)[C@H](CC(=O)O)NC(=O)[C@H](CCCNC(=N)N)NC(=O)[C@@H]2CCCN2C(=O)[C@H](CO)NC(=O)[C@H](CCCNC(=N)N)NC1=O` [Arg4] ({CH2CO}-[dY]SKYDRRSPRDCG-NH2; thioether N-12), the IC50 on PADI4 [1] (setting [4]) is > 100 µM. For the same compound, the remaining activity at 0.3 µM at PADI4 [1] (setting [9]) turned out to be 101%. In addition, the equilibrium dissociation constant (Kd) at PADI4 [3] was found to be 2 ± 0.2 µM.
Consider `CC(=N)NCCC[C@@H]1NC(=O)[C@H](CC(=O)O)NC(=O)[C@H](Cc2ccc(O)cc2)NC(=O)[C@H](CCCCN)NC(=O)[C@H](CO)NC(=O)[C@@H](Cc2ccc(O)cc2)NC(=O)CSC[C@@H](C(=O)NCC(N)=O)NC(=O)[C@H](CC(=O)O)NC(=O)[C@H](CCCNC(=N)N)NC(=O)[C@@H]2CCCN2C(=O)[C@H](CO)NC(=O)[C@H](CCCNC(=N)N)NC1=O` [Me4] ({CH2CO}-[dY]SKYD[Orn(acetimidoyl)]RSPRDCG-NH2; thioether N-12), for which, at PADI4 [1] (setting [4]), the IC50 was > 20 µM. For the same compound, at PADI4 [1] (setting [9]), the remaining activity at 0.003 µM stood at 91%, the remaining activity at 0.01 µM turned out to be 92.6%, the remaining activity at 0.03 µM stood at 96.4% and the remaining activity at 0.1 µM stood at 92.1%. For the same compound, at PADI4 [1] (setting [9]), the remaining activity at 0.3 µM amounted to 93.7%, the remaining activity at 1 µM turned out to be 86.6%, the remaining activity at 3 µM came to 84.6% and the remaining activity at 30 µM was 41.5%. Also, the remaining activity at 50 µM on PADI4 [1] (setting [9]) was found to be 25.9%. For the same compound, on PADI4 [3], the affinity, expressed as Kd, was 1.7 ± 0.4 µM.
